This data set is described as follows: Plasma concentration of Compound 2 after topical or subcutaneous dosing, Example 3. It is filed as in vivo, rabbit. To be noted: one hour after last dose, LCMS. The method, then: Drug dosing was done once daily for 14 days. Blood was collected at 60 minutes post administration of the last dose of drug and plasma separated for HPLC analysis of parent drug concentrations.
To normalize for the tear content, the lipid composition was expressed as a ratio of the lipid that was most affected by castration (palmitate) to one which remained relatively constant (stearate). Blood was also collected on day 15 (24 hours after last drug administration) of the study, plasma separated and analyzed for Compound 2.
Systemic exposures after topical and subcutaneous administration were determined in peripheral blood samples collected one hour after drug administration on the last day of the study. Plasma concentrations of Compound 2 were measured using LCMS. Mean plasma concentrations of Compound 2 following topical administration were 1177±398.72 nM, while mean levels were 1210±311.93 nM in animals that received subcutaneous (SQ) doses.

SMILES strings stand for the structures.

As for `C[C@](O)(COc1ccc(C#N)c(F)c1)C(=O)Nc1ccc(C#N)c(C(F)(F)F)c1` [Compound 2, (S)—N-(4-cyano-3-(trifluoromethyl)phenyl)-3-(4-cyano-3-fluorophenoxy)-2-hydroxy-2-methylpropanamide], the concentration at 1 h is 1210 ± 312 nM (rabbit, plasma, subcutaneous 2.5 mg/kg); 1180 ± 399 nM (rabbit, plasma, topical 2.5 mg/kg); 1210 nM (subcutaneous 2.5 mg/kg); 1177 nM (topical 2.5 mg/kg).

For the origin of these results see patent US8791158B2, “Methods of treating meibomian gland dysfunction” (GTX, Inc., priority 2010, dated 2014).
